According to US20050288307A1, “Anti-viral compounds” (priority 2002, published 2005):
Where two headings read alike, the source gives them in different places. Values belong to the molecule of their own block, whether it stands above or below them.

How the values were obtained:
CDK7/cyclin H = CDK7/cyclin H (Homo sapiens, UniProt P50613); assay: CDK7 assay (CTD peptide substrate); format: biochemical
Protocol: (§1) CTD peptide substrate (biotinyl-Ahx-(Tyr-Ser-Pro-Thr-Ser-Pro-Ser)4-NH2; 1-2 mg/mL) and recombinant human CDK7/cyclin H, CDK9/cyclin T1, or CDK9/cyclin K (0.5-2 μg) were incubated for 45 min at 30° C. in the presence of varying amounts of test compound in 20 mM MOPS pH 7.2, 25 mM β-glycerophosphate, 5 mM EGTA, 1 mM DTT, 1 mM sodium vanadate, 15 mM MgCl2, and 100 μM ATP (containing a trace amount of ^32PγATP) in a total volume of 25 μL in a 96-well microtiter plate. The reaction was stopped by placing the plate on ice for 2 min. Avidin (50 μg) was added to each well, and the plate was incubated at room temp for 30 min. The samples were transferred to a 96-well P81 filter plate, and washed (4×200 μL per well) with 75 mM phosphoric acid. Microscint 40 scintillation liquid (50 μL) was added to each well, and the amount of ^32P incorporation for each sample was measured using a Packard Topcount microplate scintillation counter.

CDK4/Cyclin D1 = CDK4/Cyclin D1 (Homo sapiens, UniProt P11802); assay: CDK4/cyclin D1 kinase assay (GST-Rb phosphorylation); format: biochemical
CDK2/Cyclin E = target: T1, CDK2/Cyclin E (Homo sapiens, UniProt P24941); assay: CDK2/cyclin E kinase assay (GST-Rb phosphorylation); format: biochemical; conditions: Table 3; read-out: Average IC50 CDK2 cyclin E1;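 note: enzyme source: His-tagged CDK2/cyclin E complex co-expressed recombinantly in Sf9 insect cells using baculovirus constructs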
T1 construct: His; made in house; host or cells: Sf9 insect cells (baculovirus)
Protocol: His-tagged CDK2/Cyclin E and CDK1/Cyclin B may be co-expressed and PKCα singularly expressed in Sf 9 insect cells infected with the appropriate baculovirus constructs. The cells are harvested two days after infection by low speed centrifugation and the proteins purified from the insect cell pellets by Metal-chelate chromatography. Briefly, the insect cell pellet is lysed in Buffer A (10 mM Tris-HCl, pH 8.0, 150 mM NaCl, 0.02% NP40 and 5 mM β-marcaptoethanol, 1 mM NaF. 1 mM Na3VO4 and Protease Inhibitors Coctail (Sigma) containing AEBSF, pepstatin A, E 64, bestatin, leupeptin) by sonication. The soluble fraction is cleared by centrifugation and loaded onto Ni-NTA-Agarose (Quiagen). Non bound proteins were washed off with 300 mM NaCl, 5-15 mM Imidazole in Buffer A and the bound proteins eluted with 250 mM Imidazole in Buffer A. The purified proteins are extensively dialyzed against Storage buffer (20 mM HEPES pH 7.4, 50 mM NaCl, 2 mM DTT, 1 mM EDTA, 1 mM EGTA, 0.02% NP40, 10% v/v Glycerol) aliquoted and stored at −70° C.

CDK1/Cyclin B = CDK1/Cyclin B (Homo sapiens, UniProt P06493); assay: CDK1/cyclin B kinase assay (GST-Rb phosphorylation);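 note: Enzyme: His-tagged CDK1/Cyclin B co-expressed in baculovirus-infected Sf9 insect cells, purified via metal-chelate chromatography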
CDK9/cyclin T1 = CDK9/cyclin T1 (Homo sapiens, UniProt P50750); assay: CDK9 assay (CTD peptide substrate); format: biochemical
Protocol: as §1

CDK2/cyclin A = CDK2/cyclin A (Homo sapiens, UniProt P24941); assay: CDK2/cyclin A kinase assay; format: biochemical; conditions: Table 3; read-out: Average IC50 CDK2 cyclin A2;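 note: Read-out is incorporated radioactivity retained on P81 filter plates and quantified by scintillation counting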
Protocol: Reactions were stopped on ice, followed by filtration through p81 filterplates (Whatman Polyfiltronics, Kent, UK). After washing 3 times with 75 mM orthophosphoric acid, plates were dried, scintillant added and incorporated radioactivity measured in a scintillation counter (TopCount, Packard Instruments, Pangboume, Berks, UK).

[1] = Table 3, read-out: Average IC50 CDK7 cyclin H
[2] = Table 3, read-out: Average IC50 CDK4 cyclin D1
[3] = Table 3, read-out: Average IC50 CDK9 cyclin T1
[4] = Table 4, read-out: Kinase Inhibition IC50 CDK7-cyclin H

CDK9/cyclin T1, sequence (P50750 whole entry): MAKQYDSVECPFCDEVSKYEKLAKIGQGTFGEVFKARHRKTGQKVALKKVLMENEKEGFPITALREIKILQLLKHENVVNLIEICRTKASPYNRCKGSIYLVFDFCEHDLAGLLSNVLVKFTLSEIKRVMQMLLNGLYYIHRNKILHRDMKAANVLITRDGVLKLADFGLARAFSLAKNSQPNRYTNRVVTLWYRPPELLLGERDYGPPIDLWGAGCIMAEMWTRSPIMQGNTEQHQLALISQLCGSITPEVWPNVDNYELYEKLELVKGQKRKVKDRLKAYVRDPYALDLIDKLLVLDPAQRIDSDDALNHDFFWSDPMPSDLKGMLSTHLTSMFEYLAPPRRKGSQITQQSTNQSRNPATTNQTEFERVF
CDK9/cyclin T1, sequence (O60563 whole entry partner): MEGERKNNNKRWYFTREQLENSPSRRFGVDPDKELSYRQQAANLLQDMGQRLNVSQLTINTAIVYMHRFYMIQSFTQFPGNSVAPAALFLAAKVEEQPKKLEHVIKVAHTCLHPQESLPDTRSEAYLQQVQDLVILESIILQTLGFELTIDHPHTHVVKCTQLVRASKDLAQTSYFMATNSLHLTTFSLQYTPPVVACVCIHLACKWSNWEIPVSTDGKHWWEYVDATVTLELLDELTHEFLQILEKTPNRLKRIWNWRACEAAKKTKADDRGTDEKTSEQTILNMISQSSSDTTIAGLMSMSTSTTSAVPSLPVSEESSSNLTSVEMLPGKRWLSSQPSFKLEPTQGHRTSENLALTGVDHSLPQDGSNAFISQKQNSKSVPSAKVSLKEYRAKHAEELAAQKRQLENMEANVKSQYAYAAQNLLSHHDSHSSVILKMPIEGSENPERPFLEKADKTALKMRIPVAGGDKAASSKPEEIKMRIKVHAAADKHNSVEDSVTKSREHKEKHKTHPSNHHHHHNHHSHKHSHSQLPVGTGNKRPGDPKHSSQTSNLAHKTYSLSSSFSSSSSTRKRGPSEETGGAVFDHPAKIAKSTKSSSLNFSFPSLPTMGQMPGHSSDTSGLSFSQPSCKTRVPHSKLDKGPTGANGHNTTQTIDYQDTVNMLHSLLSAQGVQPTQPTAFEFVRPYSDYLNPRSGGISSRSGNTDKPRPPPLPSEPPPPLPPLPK
CDK4/Cyclin D1, sequence (P11802 whole entry, species assumed): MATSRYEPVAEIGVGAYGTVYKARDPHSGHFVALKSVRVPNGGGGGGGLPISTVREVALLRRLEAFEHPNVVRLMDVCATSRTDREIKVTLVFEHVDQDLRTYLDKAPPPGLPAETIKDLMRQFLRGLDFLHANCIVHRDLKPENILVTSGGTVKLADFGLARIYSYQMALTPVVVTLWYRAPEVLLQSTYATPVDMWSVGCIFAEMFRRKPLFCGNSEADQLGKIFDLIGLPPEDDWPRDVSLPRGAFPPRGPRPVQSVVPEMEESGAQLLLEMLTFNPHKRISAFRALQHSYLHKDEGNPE
CDK4/Cyclin D1, sequence (P24385 whole entry partner, species assumed): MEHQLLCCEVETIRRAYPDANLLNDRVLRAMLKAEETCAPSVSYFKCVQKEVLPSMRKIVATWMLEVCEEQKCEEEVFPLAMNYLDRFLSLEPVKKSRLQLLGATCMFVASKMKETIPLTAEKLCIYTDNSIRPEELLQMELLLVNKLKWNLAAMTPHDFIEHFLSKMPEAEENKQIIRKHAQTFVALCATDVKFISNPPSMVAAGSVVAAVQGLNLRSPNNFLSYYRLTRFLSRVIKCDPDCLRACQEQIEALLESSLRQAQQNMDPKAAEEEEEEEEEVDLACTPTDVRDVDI
CDK7/cyclin H, sequence (P50613 whole entry): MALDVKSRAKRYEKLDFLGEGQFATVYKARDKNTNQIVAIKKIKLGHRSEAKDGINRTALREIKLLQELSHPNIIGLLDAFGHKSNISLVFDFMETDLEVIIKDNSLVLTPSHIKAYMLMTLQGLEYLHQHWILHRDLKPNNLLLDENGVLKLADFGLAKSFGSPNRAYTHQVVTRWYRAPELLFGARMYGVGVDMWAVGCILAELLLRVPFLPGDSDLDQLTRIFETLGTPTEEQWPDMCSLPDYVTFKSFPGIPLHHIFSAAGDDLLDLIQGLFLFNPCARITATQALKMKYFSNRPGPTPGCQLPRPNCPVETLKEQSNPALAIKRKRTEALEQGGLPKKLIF
CDK7/cyclin H, sequence (P51946 whole entry partner): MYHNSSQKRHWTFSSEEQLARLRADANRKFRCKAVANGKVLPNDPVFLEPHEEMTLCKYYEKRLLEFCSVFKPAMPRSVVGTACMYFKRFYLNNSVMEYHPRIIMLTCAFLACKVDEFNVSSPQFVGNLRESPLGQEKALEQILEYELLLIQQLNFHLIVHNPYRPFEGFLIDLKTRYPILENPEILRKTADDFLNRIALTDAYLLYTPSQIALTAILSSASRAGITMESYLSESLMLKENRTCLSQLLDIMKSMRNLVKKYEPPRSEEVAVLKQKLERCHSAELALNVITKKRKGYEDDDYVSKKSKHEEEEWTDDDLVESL
CDK1/Cyclin B, sequence (P06493 whole entry, species assumed): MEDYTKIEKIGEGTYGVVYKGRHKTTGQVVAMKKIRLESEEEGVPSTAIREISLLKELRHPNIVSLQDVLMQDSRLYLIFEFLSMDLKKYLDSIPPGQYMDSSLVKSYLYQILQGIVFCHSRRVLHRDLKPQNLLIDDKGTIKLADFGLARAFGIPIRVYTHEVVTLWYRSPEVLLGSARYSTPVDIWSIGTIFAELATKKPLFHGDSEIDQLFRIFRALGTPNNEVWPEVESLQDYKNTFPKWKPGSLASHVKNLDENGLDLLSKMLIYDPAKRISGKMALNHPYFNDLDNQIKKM
CDK1/Cyclin B, sequence (P14635 whole entry partner, species assumed): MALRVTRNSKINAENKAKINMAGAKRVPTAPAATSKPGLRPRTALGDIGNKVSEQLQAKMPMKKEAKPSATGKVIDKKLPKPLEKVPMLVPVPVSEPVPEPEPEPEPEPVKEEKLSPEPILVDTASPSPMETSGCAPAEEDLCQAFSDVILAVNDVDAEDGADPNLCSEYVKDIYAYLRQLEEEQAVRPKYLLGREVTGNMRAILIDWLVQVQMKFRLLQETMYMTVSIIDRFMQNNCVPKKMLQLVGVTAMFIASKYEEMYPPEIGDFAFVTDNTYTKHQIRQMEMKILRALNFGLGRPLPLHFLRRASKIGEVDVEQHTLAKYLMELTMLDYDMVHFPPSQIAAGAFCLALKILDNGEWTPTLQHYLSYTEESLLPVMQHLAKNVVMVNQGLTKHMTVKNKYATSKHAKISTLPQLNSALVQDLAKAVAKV

IC50 (CDK7/cyclin H; [1]): > 100 µM
IC50 (CDK4/Cyclin D1; [2]): > 50 µM
IC50 (CDK2/Cyclin E): 5.6 µM
IC50 (CDK1/Cyclin B): 32 µM
Compound: Cc1nc(C)c(-c2ccnc(Nc3cccc(Cl)c3)n2)s1 [Compound 3, (3-Chloro-phenyl)-[4-(2,4-dimethyl-thiazol-5-yl)-pyrimidin-2-yl]-amine]

IC50 (CDK9/cyclin T1; [3]): 0.24 µM
IC50 (CDK7/cyclin H; [1]): 3.2 µM
IC50 (CDK1/Cyclin B): 1.2 µM
Compound: Cc1nc(C)c(-c2ccnc(Nc3cccc(O)c3)n2)s1 [Compound 27, 3-[4-(2,4-Dimethyl-thiazol-5-yl)-pyrimidin-2-ylamino]-phenol]

IC50 (CDK9/cyclin T1; [3]): 0.045 µM
IC50 (CDK7/cyclin H; [1]): 1 µM
Compound: Cc1nc(N)sc1-c1ccnc(Nc2ccc(O)cc2)n1 [Compound 98, 4-[4-(2-Amino-4-methyl-thiazol-5-yl)-pyrimidin-2-ylamino]-phenol]

IC50 (CDK9/cyclin T1; [3]): 0.26 µM
IC50 (CDK7/cyclin H; [1]): 0.31 µM
Compound: Cc1nc(C)c(-c2ccnc(Nc3cccc(NC(=N)N)c3)n2)s1 [Compound 99, N-{3-[4-(2,4-Dimethyl-thiazol-5-yl)-pyrimidin-2-ylamino]-phenyl}-guanidine]

IC50 (CDK2/cyclin A): 0.91 µM
IC50 (CDK4/Cyclin D1; [2]): 1.5 µM
IC50 (CDK2/Cyclin E): 0.39 µM
IC50 (CDK1/Cyclin B): 2.8 µM
Compound: COc1cccc(Nc2nccc(-c3sc(N)nc3C)n2)c1 [Compound 108, [4-(2-Amino-4-methyl-thiazol-5-yl)-pyrimidin-2-yl]-(3-methoxy-phenyl)-amine]

IC50 (CDK2/cyclin A): 1.4 µM
IC50 (CDK4/Cyclin D1; [2]): 1.2 µM
IC50 (CDK2/Cyclin E): 0.38 µM
IC50 (CDK1/Cyclin B): 2.9 µM
Compound: Cc1nc(N)sc1-c1ccnc(Nc2cccc(F)c2)n1 [Compound 109, [4-(2-Amino-4-methyl-thiazol-5-yl)-pyrimidin-2-yl]-(3-fluoro-phenyl)-amine]

IC50 (CDK4/Cyclin D1; [2]): 5.8 µM
IC50 (CDK2/Cyclin E): 0.68 µM
Compound: Cc1nc(N)sc1-c1ccnc(Nc2ccc(C(F)(F)F)cc2)n1 [Compound 110, [4-(2-Amino-4-methyl-thiazol-5-yl)-pyrimidin-2-yl]-(4-trifluoromethyl-phenyl)-amine]

IC50 (CDK4/Cyclin D1; [2]): 0.071 µM
IC50 (CDK2/Cyclin E): 0.018 µM
Compound: Cc1nc(N)sc1-c1ccnc(Nc2cccc(Cl)c2)n1 [Compound 112, [4-(2-Amino-4-methyl-thiazol-5-yl)-pyrimidin-2-yl]-(3-chloro-phenyl)-amine]

IC50 (CDK7/cyclin H; [1]): 0.59 µM
Compound: Cc1nc(N)sc1-c1ccnc(Nc2cccc(I)c2)n1 [Compound 113, [4-(2-Amino-4-methyl-thiazol-5-yl)-pyrimidin-2-yl]-(3-iodo-phenyl)-amine]

IC50 (CDK4/Cyclin D1; [2]): 1.6 µM
IC50 (CDK2/Cyclin E): 1 µM
Compound: Cc1nc(N)sc1-c1ccnc(Nc2ccc(Br)cc2)n1 [Compound 120, [4-(2-Amino-4-methyl-thiazol-5-yl)-pyrimidin-2-yl]-(4-bromo-phenyl)-amine]

IC50 (CDK2/cyclin A): 39 µM
IC50 (CDK2/Cyclin E): 6.8 µM
IC50 (CDK1/Cyclin B): > 100 µM
Compound: CCNc1nc(C)c(-c2ccnc(Nc3cccc(OC)c3)n2)s1 [Compound 136, [4-(2-Ethylamino-4-methyl-thiazol-5-yl)-pyrimidin-2-yl]-(3-methoxy-phenyl)-amine]

IC50 (CDK4/Cyclin D1; [2]): 4.8 µM
IC50 (CDK2/Cyclin E): 3.9 µM
Compound: Cc1nc(N(C)C)sc1-c1ccnc(Nc2ccc(Cl)cc2)n1 [Compound 141, (4-Chloro-phenyl)-[4-(2-dimethylamino-4-methyl-thiazol-5-yl)-pyrimidin-2-yl]-amine]

IC50 (CDK4/Cyclin D1; [2]): 5.4 µM
IC50 (CDK2/Cyclin E): 0.89 µM
Compound: Cc1nc(N(C)C)sc1-c1ccnc(Nc2cccc(Cl)c2)n1 [Compound 143, (3-Chloro-phenyl)-[4-(2-dimethylamino-4-methyl-thiazol-5-yl)-pyrimidin-2-yl]-amine]

IC50 (CDK4/Cyclin D1; [2]): > 50 µM
IC50 (CDK2/Cyclin E): 0.18 µM
Compound: Cc1nc(N)sc1-c1ccnc(Nc2ccc([N+](=O)[O-])cc2)n1 [Compound 151, [4-(2-Amino-4-methyl-thiazol-5-yl)-pyrimidin-2-yl]-(4-nitro-phenyl)-amine]

More lines, now with the values behind:

Compound: Cc1nc(C)c(-c2ccnc(Nc3ccc(F)cc3)n2)s1 [Compound 8, [4-(2,4-Dimethyl-thiazol-5-yl)-pyrimidin-2-yl]-(4-fluoro-phenyl)-amine]
IC50 (CDK9/cyclin T1; [3]): 0.31 µM
IC50 (CDK7/cyclin H; [1]): 16 µM
IC50 (CDK1/Cyclin B): 17 µM

Compound: Cc1nc(C)c(-c2ccnc(Nc3ccc(O)c([N+](=O)[O-])c3)n2)s1 [Compound 32, 4-[4-(2,4-Dimethyl-thiazol-5-yl)-pyrimidin-2-ylamino]-2-nitro-phenol]
IC50 (CDK9/cyclin T1; [3]): 0.055 µM
IC50 (CDK4/Cyclin D1; [2]): 0.38 µM
IC50 (CDK1/Cyclin B): 14 µM

Compound: Cc1nc(C)c(-c2ccnc(Nc3ccc(C#N)cc3)n2)s1 [Compound 35, 4-[4-(2,4-Dimethyl-thiazol-5-yl)-pyrimidin-2-ylamino]-benzonitrile]
IC50 (CDK4/Cyclin D1; [2]): > 50 µM
IC50 (CDK2/Cyclin E): 8 µM
IC50 (CDK1/Cyclin B): > 50 µM

Compound: COC(=O)c1ccc(Nc2nccc(-c3sc(C)nc3C)n2)cc1 [Compound 37, 4-[4-(2,4-Dimethyl-thiazol-5-yl)-pyrimidin-2-ylamino]-benzoic acid methyl ester]
IC50 (CDK4/Cyclin D1; [2]): 17 µM
IC50 (CDK2/Cyclin E): 7.5 µM
IC50 (CDK1/Cyclin B): 38 µM

Compound: COc1ccc(Nc2nccc(-c3sc(C)nc3C)n2)cc1Cl [Compound 39, (3-Chloro-4-methoxy-phenyl)-[4-(2,4-dimethyl-thiazol-5-yl)-pyrimidin-2-yl]-amine]
IC50 (CDK4/Cyclin D1; [2]): > 50 µM
IC50 (CDK2/Cyclin E): 5.6 µM
IC50 (CDK1/Cyclin B): 40 µM

Compound: CNc1nc(C)c(-c2ccnc(Nc3ccc(O)cc3)n2)s1 [Compound 48, 4-[4-(4-Methyl-2-methylamino-thiazol-5-yl)-pyrimidin-2-ylamino]-phenol]
IC50 (CDK9/cyclin T1; [3]): 0.076 µM
IC50 (CDK7/cyclin H; [1]): 0.86 µM

Compound: Cc1nc(C)c(-c2ccnc(Nc3ccc([N+](C)(C)C)cc3)n2)s1 [Compound 104, {4-[4-(2,4-Dimethyl-thiazol-5-yl)-pyrimidin-2-ylamino]-phenyl}-trimethyl-ammonium]
IC50 (CDK9/cyclin T1; [3]): 0.14 µM
IC50 (CDK7/cyclin H; [1]): 0.39 µM

Compound: CCN(CC)CCOc1ccc(Nc2nccc(-c3sc(C)nc3C)n2)cc1 [Compound 122, [4-(2-Diethylamino-ethoxy)-phenyl]-[4-(2,4-dimethyl-thiazol-5-yl)-pyrimidin-2-yl]-amine]
IC50 (CDK7/cyclin H; [1]): 0.44 µM

Compound: Cc1nc(C)c(-c2ccnc(Nc3ccc(CCO)cc3)n2)s1 [Compound 123, 2-{4-[4-(2,4-Dimethyl-thiazol-5-yl)-pyrimidin-2-ylamino]-phenyl}-ethanol]
IC50 (CDK2/cyclin A): 0.57 µM
IC50 (CDK4/Cyclin D1; [2]): 3.3 µM
IC50 (CDK2/Cyclin E): 0.47 µM
IC50 (CDK1/Cyclin B): 1.9 µM

Compound: CCN(CCO)c1ccc(Nc2nccc(-c3sc(C)nc3C)n2)cc1 [Compound 124, 2-({4-[4-(2,4-Dimethyl-thiazol-5-yl)-pyrimidin-2-ylamino]-phenyl}-ethyl-amino)-ethanol]
IC50 (CDK2/cyclin A): 3.7 µM
IC50 (CDK4/Cyclin D1; [2]): 6.7 µM
IC50 (CDK2/Cyclin E): 3 µM
IC50 (CDK1/Cyclin B): 8.6 µM

Compound: COc1ccc(Nc2nccc(-c3sc(C)nc3C)n2)cc1O [Compound 126, 5-[4-(2,4-Dimethyl-thiazol-5-yl)-pyrimidin-2-ylamino]-2-methoxy-phenol]
IC50 (CDK9/cyclin T1; [3]): 1.3 µM
IC50 (CDK2/cyclin A): 0.31 µM
IC50 (CDK4/Cyclin D1; [2]): 1.7 µM
IC50 (CDK2/Cyclin E): 0.14 µM
IC50 (CDK1/Cyclin B): 1.6 µM

Compound: Cc1nc(C)c(-c2ccnc(Nc3ccc(N(C)C)c([N+](=O)[O-])c3)n2)s1 [Compound 127, N^4-[4-(2,4-Dimethyl-thiazol-5-yl)-pyrimidin-2-yl]-N^1,N^1-dimethyl-2-nitro-benzene-1,4-diamine]
IC50 (CDK7/cyclin H; [1]): 1.5 µM
IC50 (CDK1/Cyclin B): 0.13 µM

Compound: CCNc1nc(C)c(-c2ccnc(Nc3ccc(C)c([N+](=O)[O-])c3)n2)s1 [Compound 138, [4-(2-Ethylamino-4-methyl-thiazol-5-yl)-pyrimidin-2-yl]-(4-methyl-3-nitro-phenyl)-amine]
IC50 (CDK2/cyclin A): 9.5 µM
IC50 (CDK2/Cyclin E): 2.7 µM
IC50 (CDK1/Cyclin B): 41 µM

Compound: CCCCNc1nc(C)c(-c2ccnc(Nc3ccc(F)cc3)n2)s1 [Compound 139, [4-(2-Butylamino-4-methyl-thiazol-5-yl)-pyrimidin-2-yl]-(4-fluoro-phenyl)-amine]
IC50 (CDK9/cyclin T1; [3]): 23 µM
IC50 (CDK2/cyclin A): 25 µM
IC50 (CDK4/Cyclin D1; [2]): 30 µM
IC50 (CDK2/Cyclin E): 1.7 µM
IC50 (CDK1/Cyclin B): 47 µM

Compound: Cc1nc(N(C)C)sc1-c1ccnc(Nc2ccc(F)cc2)n1 [Compound 142, [4-(2-Dimethylamino-4-methyl-thiazol-5-yl)-pyrimidin-2-yl]-(4-fluoro-phenyl)-amine]
IC50 (CDK4/Cyclin D1; [2]): 4 µM
IC50 (CDK2/Cyclin E): 1.3 µM

Compound: COc1ccc(Nc2nccc(-c3sc(=O)n(C)c3C)n2)cc1 [Compound 157, 5-[2-(4-Methoxy-phenylamino)-pyrimidin-4-yl]-3,4-dimethyl-3H-thiazol-2-one]
IC50 (CDK7/cyclin H; [4]): 2 µM
IC50 (CDK1/Cyclin B): 0.78 µM

Compound: Cc1c(-c2ccnc(Nc3ccc(N(C)C)cc3)n2)sc(=O)n1C [Compound 164, 5-[2-(4-Dimethylamino-phenylamino)-pyrimidin-4-yl]-3,4-dimethyl-3H-thiazol-2-one]
IC50 (CDK9/cyclin T1; Table 4, read-out: Kinase Inhibition IC50 CDK9-cyclin T1): 0.13 µM
IC50 (CDK7/cyclin H; [4]): 1.8 µM
IC50 (CDK4/Cyclin D1; Table 4, read-out: Kinase Inhibition IC50 CDK4-cyclin D1): 1 µM
IC50 (CDK1/Cyclin B): 2.2 µM
